What was measured:
[1] = target: Antibody from Mannich Immunogen; experiment: RIA cross-reactivity: competition with labeled physostigmine for antibody from Mannich immunogen; format: binding, New Zealand white rabbits; conditions: 1:100, max 1000 ng tested
Method: (§1) Antibodies to the physostigmine-BSA immunogen were produced by injecting male New Zealand white rabbits with immunogens formed by either method. Prior to injection, the immunogen was emulsified with an equal volume of complete Freund's adjuvant, purchased from Difco Laboratories of Detroit, Mich. The initial immunization consisted of 0.8 mg of protein injected intracutaneously in multiple dorsal sites of the rabbits. Booster injections containing 0.8 mg of immunogen and incomplete Freund's adjuvant were administered every two months for the next six months. Antisera was collected one week after each booster injection from the central ear vein. The blood was allowed to clot at room temperature and then centrifuged at 1500×g for 15 minutes. The separated serum was stored frozen at -20° C. until assayed for the presence of physostigmine antibody.
(§2) In the assay procedure ^3 H-Physostigmine having specificity of 19.0 Ci/mmole and purchased from the Amersham Corp. of Arlington Heights, Ill., was used as tracer. […] Both standard and sample tubes were always analyzed in duplicate. The assay was carried out according to the protocol shown in Table 1 with the reagents were added to the assay tubes in the order shown.
(§3) According to the protocol for the RIA of the present invention, after the addition of antisera, the contents of the tubes were mixed and incubated for 3 hours at 4° C. The antigen which bound to the antibody was separated by adding saturated ammonium sulfate and centrifuging at 2500×g for 15 minutes. After aspiration of the supernatant, the precipitate was washed one time with 50% saturated ammonium sulfate; then the mixture was centrifuged and the supernatent removed. The precipitate was dissolved in 1.0 ml of distilled water, and the solution was transferred to a scintillation vial containing 10.0 ml of acquasol 2.
(§4) The radioactivity which was bound to the antibody was determined in counts per minute with a Beckman LS-3133P Liquid Scintillation Counter. […] The concentration of physostigmine is plotted on the horizontal axis, while the percent inhibition of binding radioactively labeled is plotted on the vertical axis. […] Concentrations of physostigmine in unknown samples were determined according to conventional calculations from the standard curve.
(§5) Competition of the compounds with labeled physostigmine (5000 dpm) for antibody binding sites was determined arbitrarily at 50% inhibition of the physostigmine on the standard curve. Each compound was tested for cross-reactivity with the antibody. The maximum concentration of each compound tested was 1000 ng.

[2] = cited from earlier work
[3] = particularly in plasma and blood; cited from earlier work
[4] = target: Antibody from Diazo-coupled Immunogen; experiment: RIA cross-reactivity: competition with labeled physostigmine for antibody from diazo-coupled immunogen; format: binding, New Zealand white rabbits; conditions: 1:150, max 1000 ng tested
Method: as §1
as §2, with “tracer. The dilution of tracer (5000 dpm), antibody (1:150) and physostigmine standards (100-10,000 pg) were made using 0.01M phosphate buffer containing 150 mM sodium chloride with a pH of 7.4.” for “tracer.”
as §3, §4, §5

In the case of `CNC(=O)Oc1ccc2c(c1)[C@]1(C)CCN(C)[C@@H]1N2C` [Physostigmine, physostigmine], the “IC50 (50% inhibition of binding of 3H-physostigmine)” value [1] is given as 1.35 ng, the adverse muscarinic effects ([2]; certain patients) is given as “nausea, vomiting, diarrhea, miosis, excessive salivation and sweating, abdominal cramps, bradycardia, bronchial secretion and bronchospasm” and the “toxic level relative to therapeutic level” value ([2]; clinical use) is given as “toxic at levels very close to those which produce therapeutic results”. For the same compound, the “effect of substantial over administration” value ([2]; overdose) was “cholinergic crisis leading to death”, the other side effects ([2]; thrombophlebitis if administered intravenously) was “generalized weakness, muscle cramps, fasciculation, hypotension, and, if administered intraveneously, thrombophlebitis” and the “in vitro hydrolysis in biological solutions” value [3] was “extensive in vitro hydrolysis”. The “IC50 (50% inhibition of binding of 3H-physostigmine)” value [4] was 1.35 ng.

— patent US5252495A, “Immunoassay for physostigmine” (priority 1992, dated 1993)
